In EP3925949A1, “AZIDO COMPOUNDS AND METHOD FOR MONITORING ACID CERAMIDASE ACTIVITY IN INTACT CELLS USING THEM” (Consejo Superior de Investigaciones Científicas (CSIC), priority 2020, dated 2021):

Tests used:
Type in all cases: cell-based
[1] = system: CerS; assay: CerS activity-dependence of labelling with RBM5-177 (confocal microscopy and UPLC-HRMS); details: A375/+Dox cells, FB1 100 µM, 24 h
Description: Cells were seeded at 5 × 10^5 cells/mL into 6 well plates (1 mL/well) and were allowed to adhere for 24 h. Medium was replaced with fresh medium containing RBM5-177, RBM5-019 or RBM2-37 (5 µM final concentration). After 30 min, medium was removed; cells were washed with 400 µL PBS and harvested with 400 µL Trypsin-EDTA and 600 µL of medium. NC recombinant enzyme, lysates from A375-AC overexpressing cells, MEF5 or microsomes from HeLa T-Rex ACER1-TET-ON and HeLa T-Rex ACER2-TET-ON cells stably overexpress ACER1 orACER2 respectively were incubated with RBM5-177 or RBM5-019 (10 µM final concentration) for 3 h in the corresponding ceramidase activity buffer. Cell pellets were resuspended with 100 µL of H2O and mixed with 750 µL of methanol: chloroform, 2:1. Samples were heated at 48°C overnight and next day, 75 µL of 1 M KOH in methanol were added, followed by 2 h incubation at 37°C. Afterwards, the saponification was neutralised with 75 µL of 1 M acetic acid and solvent was removed using a Speed Vac Savant SPD131 DDA (Thermo Scientific). […]
Cells were seeded at 1 × 10^5 cells/mL on glass-bottom plates and allowed to adhere for 24 h. […] Co-localization coefficients were measured using the JaCoP plugin (S. Bolte et al. J. Microsc. 2006, 224, 213-232) on the different stacks of images (at least n=4) with each stack containing 3-10 cells.

[2] = target: T1, acid ceramidase (AC) (Homo sapiens, UniProt Q13510); assay: AC activity by flow cytometry with RBM5-177/CO-1 in intact cells; set-up: expressed in transfected cells; host or cells: A375/+Dox and FD/AC (overexpressing AC); A375/-Dox and A549 (endogenous AC); details: A375/+Dox, 4 h, RBM5-177 as substrate, labelling with CO-1 (1 µM, 10 min)
T1 sequence (Q13510 143-395 limits assumed): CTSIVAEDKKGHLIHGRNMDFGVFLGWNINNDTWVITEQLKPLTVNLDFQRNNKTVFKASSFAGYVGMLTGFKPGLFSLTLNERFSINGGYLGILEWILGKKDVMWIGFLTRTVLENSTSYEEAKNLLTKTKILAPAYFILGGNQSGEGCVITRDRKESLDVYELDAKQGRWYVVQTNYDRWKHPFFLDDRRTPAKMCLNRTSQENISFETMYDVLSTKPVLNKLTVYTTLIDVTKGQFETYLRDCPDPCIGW
T1 sequence (Q13510 22-142 limits assumed): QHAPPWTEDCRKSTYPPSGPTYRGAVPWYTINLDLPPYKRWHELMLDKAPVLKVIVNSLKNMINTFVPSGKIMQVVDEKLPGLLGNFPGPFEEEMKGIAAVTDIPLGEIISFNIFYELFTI
Description: Cells were seeded at 1 × 10^5 cells/mL into 6 well plates (1 mL/well) and were allowed to adhere for 24 h. Medium was replaced with fresh medium containing Soclac (5 µM final concentration) and incubated for 1 h. After this time, the medium was replaced with RBM5-177, RBM5-019 or RBM2-37 (5 µM final concentration) +/- Soclac and incubated for 20 min. In the experiments with DM120, the compound, Soclac and RBM5-177 were incubated together for 4 h. After probes incubation, the medium was replaced with fresh medium containing CO-1 (1 µM final concentration), and cells were incubated for 10 min. Then cells were washed 3 times with DMEM for 5 min at 37 °C, and finally washed with 400 µL PBS and harvested with 400 µL Trypsin-EDTA and 600 µL of medium. Pellets were resuspended with 200 µL of PBS and stained cells were analyzed by using a Guava EasyCyte™ flow cytometer (Merck Millipore, Billerica, MA) measuring green fluorescence (488/525 nm). Data analysis was performed using the Multicycle AV program (Phoenix Flow Systems, San Diego, CA).

[3] = system: A375 cells; assay: Cell viability (MTT method); details: A375/+Dox, 4 h, whole range of concentrations examined
Description: A375 cells were seeded at 2.5 × 10^4 cells/mL in 96-well plates (0.1 ml/well) and grown for 24 h. Overexpression of AC was induced with doxycycline at 1 µg/mL for 24 h. Cell viability was examined in triplicate samples by MTT method after treatment with DM120 at different concentrations or with the corresponding percentage of vehicle for 4 h.

[4] = target: T1, acid ceramidase (AC); assay: AC activity in intact cells by UPLC-HRMS quantification of RBM5-019 and reacylated products; set-up: expressed in transfected cells; host or cells: A375/+Dox (overexpressing AC); details: A375/+Dox, 4 h, decrease in RBM5-19 amounts by UPLC-HRMS
Description: Cells were seeded at 5 × 10^5 cells/mL into 6 well plates (1 mL/well) and were allowed to adhere for 24 h. Medium was replaced with fresh medium containing RBM5-177, RBM5-019 or RBM2-37 (5 μM final concentration). After 30 min, medium was removed; cells were washed with 400 μL PBS and harvested with 400 μL Trypsin-EDTA and 600 μL of medium. NC recombinant enzyme, lysates from A375-AC overexpressing cells, MEF5 or microsomes from HeLa T-Rex ACER1-TET-ON and HeLa T-Rex ACER2-TET-ON cells stably overexpress ACER1 orACER2 respectively were incubated with RBM5-177 or RBM5-019 (10 μM final concentration) for 3 h in the corresponding ceramidase activity buffer. Cell pellets were resuspended with 100 μL of H2O and mixed with 750 μL of methanol: chloroform, 2:1. Samples were heated at 48°C overnight and next day, 75 μL of 1 M KOH in methanol were added, followed by 2 h incubation at 37°C. Afterwards, the saponification was neutralised with 75 μL of 1 M acetic acid and solvent was removed using a […] (Thermo Scientific). Sphingolipid extracts, fortified with internal standards (N-dodecanoylsphingosine, N-dodecanoylglucosylsphingosine, N-dodecanoylsphingosylphosphorylcoline and C17-sphinganine 0.2 nmol each) were solubilised in 150 μL of methanol. Samples were then centrifuged at 9,300 g for 3 min and 130 μL of the supernatant were injected to a Waters Aquity UPLC system connected to a Waters LCT Premier Orthogonal Accelerated Time of Flight Mass Spectrometer (Waters,Milford, MA, USA) operated in positive electrospray ionisation mode. Full scan spectra from 50 to 1500 Da were acquired and individual spectra were summed to produce data points each 0.2 s. Mass accuracy and reproducibility were maintained by using an independent reference spray by the LockSpray interference. The analytical column was a 100 mm x2.1 mm i.d., 1.7 μm C8 Acquity UPLC BEH (Waters). The two mobile phases were phase A: methanol/water/formic acid (74/25/1 v/v/v); phase B: methanol/formic acid (99/1 v/v), both also contained 5 mM ammonium formate. […]

[5] = target: T1, acid ceramidase (AC); assay: Fluorogenic AC activity in intact cells (substrate RBM14C12); set-up: expressed in transfected cells; host or cells: A375/+Dox (overexpressing AC); details: AC overexpressing A375 cells (A375/+Dox), 4 h, substrate RBM14C12 40 µM
Description: To determine AC activity in intact cells, A375 cells were seeded at 2.5 × 10^4 cells/mL in 96-well plates (0.1 ml/well) and grown for 24 h. Overexpression of AC was induced with doxycycline at 1 µg/mL for 24 h. Medium was replaced by DM120 at different concentrations and substrate RBM14C12 at a final concentration of 40 µM in DMEM. The plate was incubated for 4 h at 37°C in 5% CO2. The reaction was stopped with 25 µL of MeOH and then 100 µL of NalO4 (2.5 mg/mL in glycine-NaOH buffer, pH 10.6) was added. After incubation at 37°C for 1 h, 100 µL of 0.1 M glycine-NaOH buffer (pH 10.6) was added and fluorescence was measured spectrophotometrically at excitation and emission wavelengths of 355 and 460 nm, respectively. The same reaction mixture without cells was used as blank.

[6] = target: T1, acid ceramidase (AC); assay: AC activity-dependence of labelling (fluorescence confocal microscopy); set-up: expressed in transfected cells; host or cells: FD/AC (overexpressing AC); details: A375/+Dox and A375/-Dox, with or without SOCLAC (Fig. 7A)
Description: Cells were seeded at 1 × 10^5 cells/mL on glass-bottom plates and allowed to adhere for 24 h. For golgi staining, cells were incubated with 40 µL/well of CellLight Golgi-RFP BacMam 2.0 for 24 h. […] After this time, the medium was replaced with fresh medium containing CO-1 (1 µM final concentration), and cells were incubated for 10 min. Then cells were washed 3 times with DMEM for 5 min at 37 °C, 75 nM LysoTracker Red DND-99 or 75 nM Mitotracker in phenol red-free DMEM was added to stain lysosomes or mitochondria, and cells were kept in the incubator for microscope analysis. Staining was viewed with a Zeiss LSM 880 confocal microscope or Leica TCS SP8-Hyvolution. Image analysis was performed using Fiji software.^[7] To measure the Manders's and Pearson's coefficients a threshold including organelles and discarding the background was set. Co-localization coefficients were measured using the JaCoP plugin (S. Bolte et al. J. Microsc. 2006, 224, 213-232) on the different stacks of images (at least n=4) with each stack containing 3-10 cells.

Q: `CCCC[C@@H](C)[C@@H](OC(=O)C[C@@H](CC(=O)O)C(=O)O)[C@H](C[C@@H](C)C[C@H](O)CCCC[C@@H](O)C[C@H](O)[C@H](C)N)OC(=O)C[C@@H](CC(=O)O)C(=O)O` [FB1, Fumonisin B1] was tested. Which “effect on transacylation (N-acylderivatives)” value ([1]; UPLC-HRMS (Fig. 4B)) did it give?
A: transacylation was blocked

Q: What about the “effect on extralysosomal staining” value ([1]; confocal microscopy (Fig. 4A)) of the same molecule?
A: prevented

Q: Which IC50 [2] does the source give for `CCCCCCCCCCCCC/C=C/[C@H](CO)NC(=O)C(C)(C)C` [DM120] here?
A: 27 µM

Q: What about the toxicity [3] of the same molecule?
A: without toxicity in the whole range of concentrations examined

Q: What about the IC50 [4] of the same molecule?
A: 18 µM

Q: And the IC50 [5]?
A: 9.4 µM

Q: How did the “sensitivity of lysosome labelling to AC activity” value [6] turn out when `C[C@H](N)[C@H](O)CCCCCCCCCCCCN=[N+]=[N-]` [RBM5-019, (2S,3R)-2-Amino-15-azidopentadecan-3-ol] was run?
A: not sensitive to AC overexpression or blockade
